The results in this text go back to patent US12509444B2, “Compounds and methods for CD73 modulation and indications therefor” (Plexxikon Inc., priority 2019, dated 2025).

pIC50: −log10 of the molar value.

The target of test [1] is T1, Human CD73 (amino acid residues 27-549) (Homo sapiens, UniProt P21589).
T1 construct: Human CD73 (amino acid residues 27-549); His tag (N); made in house; host or cells: E. coli
T1 sequence (P21589 27-549): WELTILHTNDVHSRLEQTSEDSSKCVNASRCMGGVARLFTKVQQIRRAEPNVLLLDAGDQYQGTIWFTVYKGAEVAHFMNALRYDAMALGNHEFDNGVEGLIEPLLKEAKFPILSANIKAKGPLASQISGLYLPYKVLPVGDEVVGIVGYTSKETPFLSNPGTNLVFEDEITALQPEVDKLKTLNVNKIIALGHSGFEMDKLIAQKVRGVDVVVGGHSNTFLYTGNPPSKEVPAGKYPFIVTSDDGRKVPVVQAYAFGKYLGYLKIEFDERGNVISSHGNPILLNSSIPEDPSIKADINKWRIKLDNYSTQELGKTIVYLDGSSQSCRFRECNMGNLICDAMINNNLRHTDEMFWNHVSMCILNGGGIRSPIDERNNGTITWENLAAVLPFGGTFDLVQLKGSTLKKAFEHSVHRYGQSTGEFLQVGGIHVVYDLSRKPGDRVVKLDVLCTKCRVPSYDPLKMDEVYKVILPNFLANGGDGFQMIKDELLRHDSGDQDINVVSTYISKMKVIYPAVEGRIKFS
The test can be described thus: CD73 enzymatic assay (luciferase-based indirect assay, CellTiter-Glo). In kind it is biochemical. To be noted: 0.4 nM CD73, 150 μM AMP, 1 hour at room temperature. In outline: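 Residual AMP inhibits luciferase, so luminescence reports CD73 turnover; read with CellTiter-Glo 2.0 plus 1 μM final ATP, 30 min. Reaction used 0.4 nM N-His CD73 (27-549, E. coli), 150 μM AMP, HEPES pH 7.4 with Tween 20, 1 h at room temperature. IC50 fitted by nonlinear regression.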

The next test has as its target T2, human CD73 (Homo sapiens, UniProt P21589).
T2 construct: expressed in transfected cells
T2 sequence (P21589 27-549): T1 sequence (P21589 27-549)
Description: Inhibitor activity against CD73 in cell based assay (CD73 expressing CHO-K1 cells). To be noted: CHO-K1 cells expressing human CD73, 150 μM AMP, 4 hours of incubation; read-out: CHO-K1 CELL VARIANT: CD73 IC50. In outline:
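Residual supernatant AMP was quantified via CellTiter-Glo luminescence (1 μM ATP added, 30 min, room temperature) after a 4 h exposure of human CD73-expressing CHO-K1 cells to 150 μM AMP plus compound, top final 10 μM, 8 points. IC50 came from nonlinear regression of percent inhibition.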

`CCCNC(=O)[C@H]1C[C@H](NC(=O)O[C@@H]2CCN(c3cn[nH]c(=O)c3Cl)C2)C1` [P-0199, (R)-1-(5-chloro-6-oxo-1,6-dihydropyridazin-4-yl)pyrrolidin-3-yl ((1r,3R)-3-(propylcarbamoyl)cyclobutyl) carbamate]: the negative-log IC50 (pIC50) was 5.00 to 9.00 in test [1] and 4.00 to 5.00 at human CD73.
Turning to `O=C(N[C@H]1C[C@H](C(=O)Nc2ccccc2)C1)O[C@@H]1CCN(c2cn[nH]c(=O)c2Cl)C1` [P-0200, (R)-1-(5-chloro-6-oxo-1,6-dihydropyridazin-4-yl)pyrrolidin-3-yl ((1r,3R)-3-(phenylcarbamoyl)cyclobutyl) carbamate], the pIC50 (in test [1]; on human CD73) was 5.00 to 9.00 each time.
As to `Cn1ncc(N2CC[C@@H](OC(=O)N[C@H]3CC[C@H](NS(=O)(=O)c4ccccc4F)CC3)C2)c(Cl)c1=O` [P-0201, (R)-1-(5-chloro-1-methyl-6-oxo-1,6-dihydropyridazin-4-yl)pyrrolidin-3-yl ((1r,4R)-4-((2-fluorophenyl)sulfonamido)cyclohexyl)carbamate], the negative logarithm of the IC50 (pIC50) (in test [1]; on human CD73) was 5.00 to 9.00 each time.
For the molecule `Cn1ncc(N2CC[C@@H](OC(=O)NC3CCC(F)(F)CC3)C2)c(Cl)c1=O` [P-0202, (R)-1-(5-chloro-1-methyl-6-oxo-1,6-dihydropyridazin-4-yl)pyrrolidin-3-yl (4,4-difluorocyclohexyl)carbamate], the pIC50 (in test [1]; on human CD73) was 5.00 to 9.00 in each case.
Regarding `CC(C)(C)C1CCC(NC(=O)O[C@@H]2CCN(c3cn[nH]c(=O)c3Cl)C2)CC1` (stereo partly drawn) [P-0203, (R)-1-(5-chloro-6-oxo-1,6-dihydropyridazin-4-yl)pyrrolidin-3-yl (4-(tert-butyl)cyclohexyl)carbamate], the negative-log IC50 (pIC50) (in test [1]; at human CD73) was 5.00 to 9.00 in each case.
`O=C(NC1CC2CCC1C2)O[C@@H]1CCN(c2cn[nH]c(=O)c2Cl)C1` (stereo partly drawn) [P-0204, (R)-1-(5-chloro-6-oxo-1,6-dihydropyridazin-4-yl)pyrrolidin-3-yl bicyclo[2.2.1]heptan-2-ylcarbamate]: the negative-log IC50 (pIC50) (in test [1]; at human CD73) was 5.00 to 9.00 each time.
Turning to `O=C(NC1CCCCCC1)O[C@@H]1CCN(c2cn[nH]c(=O)c2Cl)C1` [P-0205, (R)-1-(5-chloro-6-oxo-1,6-dihydropyridazin-4-yl)pyrrolidin-3-yl cycloheptylcarbamate], the pIC50 (in test [1]; on human CD73) was 5.00 to 9.00 in each case.
Consider `O=C(NC1Cc2ccccc2C1)O[C@@H]1CCN(c2cn[nH]c(=O)c2Cl)C1` [P-0206, (R)-1-(5-chloro-6-oxo-1,6-dihydropyridazin-4-yl)pyrrolidin-3-yl (2,3-dihydro-1H-inden-2-yl)carbamate], for which the negative-log IC50 (pIC50) (in test [1]; on human CD73) was 5.00 to 9.00 each time.
For the molecule `O=C(NC1CCc2[nH]ncc2C1)O[C@@H]1CCN(c2cn[nH]c(=O)c2Cl)C1` (stereo partly drawn) [P-0207, (R)-1-(5-chloro-6-oxo-1,6-dihydropyridazin-4-yl)pyrrolidin-3-yl (4,5,6,7-tetrahydro-1H-indazol-5-yl)carbamate], the pIC50 (in test [1]; on human CD73) was 5.00 to 9.00 in each case.
For `CN1CC(NC(=O)O[C@@H]2CCN(c3cn[nH]c(=O)c3Cl)C2)CC1=O` (stereo partly drawn) [P-0208, (R)-1-(5-chloro-6-oxo-1,6-dihydropyridazin-4-yl)pyrrolidin-3-yl (1-methyl-5-oxopyrrolidin-3-yl)carbamate], the negative logarithm of the IC50 (pIC50) (in test [1]; at human CD73) was 5.00 to 9.00 in each case.
`CCCN1CC(NC(=O)O[C@@H]2CCN(c3cn[nH]c(=O)c3Cl)C2)CC1=O` (stereo partly drawn) [P-0209, (R)-1-(5-chloro-6-oxo-1,6-dihydropyridazin-4-yl)pyrrolidin-3-yl (5-oxo-1-propylpyrrolidin-3-yl)carbamate]: the pIC50 (in test [1]; on human CD73) was 5.00 to 9.00 throughout.
For the molecule `Cn1ncc(N2CC[C@@H](OC(=O)N[C@H]3CC[C@@H](C)CC3)C2)c(Cl)c1=O` [P-0210, (R)-1-(5-chloro-1-methyl-6-oxo-1,6-dihydropyridazin-4-yl)pyrrolidin-3-yl ((1s,4S)-4-methylcyclohexyl)carbamate], the pIC50 (in test [1]; on human CD73) was 5.00 to 9.00 throughout.
Turning to `Cn1ncc(N2CC[C@@H](OC(=O)N[C@H]3CC[C@@H](NC(=O)c4ccccc4)CC3)C2)c(Cl)c1=O` [P-0211, (R)-1-(5-chloro-1-methyl-6-oxo-1,6-dihydropyridazin-4-yl)pyrrolidin-3-yl ((1s,4S)-4-benzamidocyclohexyl) carbamate], the pIC50 (in test [1]; at human CD73) was 5.00 to 9.00 in each case.
As for `O=C(NC1CC2(C1)CN(S(=O)(=O)c1ccc(F)cc1)C2)O[C@@H]1CCN(c2cn[nH]c(=O)c2Cl)C1` [P-0212, (R)-1-(5-chloro-6-oxo-1,6-dihydropyridazin-4-yl)pyrrolidin-3-yl (2-((4-fluorophenyl)sulfonyl)-2-azaspiro[3.3]heptan-6-yl)carbamate], the pIC50 (in test [1]; on human CD73) was 5.00 to 9.00 throughout.
Consider `O=CNC1CC2(C1)CC(NC(=O)O[C@@H]1CCN(c3cn[nH]c(=O)c3Cl)C1)C2` (stereo partly drawn) [P-0213, (R)-1-(5-chloro-6-oxo-1,6-dihydropyridazin-4-yl)pyrrolidin-3-yl (6-formamidospiro[3.3]heptan-2-yl)carbamate], for which the pIC50 (in test [1]; on human CD73) was 5.00 to 9.00 throughout.
For `O=C(Nc1ccc(F)cc1)NC1CC2(C1)CC(NC(=O)O[C@@H]1CCN(c3cn[nH]c(=O)c3Cl)C1)C2` (stereo partly drawn) [P-0214, (R)-1-(5-chloro-6-oxo-1,6-dihydropyridazin-4-yl)pyrrolidin-3-yl (6-(3-(4-fluorophenyl)ureido)spiro[3.3]heptan-2-yl)carbamate], the negative-log IC50 (pIC50) (in test [1]; at human CD73) was 5.00 to 9.00 in each case.
As to `CCC(CC)NC(=O)O[C@@H]1CCN(c2cn[nH]c(=O)c2Cl)C1` [P-0215, (R)-1-(5-chloro-6-oxo-1,6-dihydropyridazin-4-yl)pyrrolidin-3-yl pentan-3-ylcarbamate], the negative-log IC50 (pIC50) (in test [1]; at human CD73) was 5.00 to 9.00 in each case.
Consider `Cn1ncc(N2CC[C@@H](OC(=O)N[C@H]3CC[C@H](NS(=O)(=O)c4ccc(F)cc4)CC3)C2)c(Cl)c1=O` [P-0216, (R)-1-(5-chloro-1-methyl-6-oxo-1,6-dihydropyridazin-4-yl)pyrrolidin-3-yl ((1r,4R)-4-((4-fluorophenyl)sulfonamido)cyclohexyl)carbamate], for which the negative-log IC50 (pIC50) (in test [1]; at human CD73) was 5.00 to 9.00 in each case.
As for `Cn1ncc(N2CC[C@@H](OC(=O)N[C@H]3CC[C@H](NC(=O)c4ccccc4)CC3)C2)c(Cl)c1=O` [P-0217, (R)-1-(5-chloro-1-methyl-6-oxo-1,6-dihydropyridazin-4-yl)pyrrolidin-3-yl ((1r,4R)-4-benzamidocyclohexyl) carbamate], the negative-log IC50 (pIC50) (in test [1]; at human CD73) was 5.00 to 9.00 throughout.
As for `Cn1ncc(N2CC[C@@H](OC(=O)N[C@H]3CC[C@H](NS(=O)(=O)NC4CCCC4)CC3)C2)c(Cl)c1=O` [P-0218, (R)-1-(5-chloro-1-methyl-6-oxo-1,6-dihydropyridazin-4-yl)pyrrolidin-3-yl ((1r,4R)-4-((N-cyclopentylsulfamoyl)amino)cyclohexyl)carbamate], the negative-log IC50 (pIC50) (in test [1]; at human CD73) was 5.00 to 9.00 in each case.
As to `CC(C)(C)c1nnc(NC(=O)O[C@@H]2CCN(c3cn[nH]c(=O)c3Cl)C2)s1` [P-0219, (R)-1-(5-chloro-6-oxo-1,6-dihydropyridazin-4-yl)pyrrolidin-3-yl (5-(tert-butyl)-1,3,4-thiadiazol-2-yl)carbamate], the negative-log IC50 (pIC50) (in test [1]; at human CD73) was 4.00 to 5.00 throughout.
`Cc1cc(NC(=O)O[C@@H]2CCN(c3cn[nH]c(=O)c3Cl)C2)no1` [P-0220, (R)-1-(5-chloro-6-oxo-1,6-dihydropyridazin-4-yl)pyrrolidin-3-yl (5-methylisoxazol-3-yl)carbamate]: the pIC50 (in test [1]; at human CD73) was 5.00 to 9.00 each time.
On to `Cc1nc(NC(=O)O[C@@H]2CCN(c3cn[nH]c(=O)c3Cl)C2)sc1C` [P-0221, (R)-1-(5-chloro-6-oxo-1,6-dihydropyridazin-4-yl)pyrrolidin-3-yl (4,5-dimethylthiazol-2-yl)carbamate], for which the negative-log IC50 (pIC50) (in test [1]; at human CD73) was 4.00 to 5.00 each time.
`Cn1cc(NC(=O)O[C@@H]2CCN(c3cn[nH]c(=O)c3Cl)C2)cn1` [P-0222, (R)-1-(5-chloro-6-oxo-1,6-dihydropyridazin-4-yl)pyrrolidin-3-yl (1-methyl-1H-pyrazol-4-yl)carbamate]: the pIC50 in test [1] was 5.00 to 9.00; on human CD73 it was 4.00 to 5.00.
For `O=C(NCc1cc(C2CC2)[nH]n1)O[C@@H]1CCN(c2cn[nH]c(=O)c2Cl)C1` [P-0223, (R)-1-(5-chloro-6-oxo-1,6-dihydropyridazin-4-yl)pyrrolidin-3-yl ((5-cyclopropyl-1H-pyrazol-3-yl)methyl)carbamate] the same measures were 4.00 to 5.00 and 4.00 to 5.00.

A word on the pIC50: it is the IC50 on a negative log10 scale, so that one unit is a factor of ten.
